Key:
LU0858 = assay: Erlotinib-resistant NSCLC PDX model LU0858; type: in vivo, BALB/c nude mice
Method: (§1) Inoculation of tumor fragments into BALB/c nude mice and randomization was performed as described above.
(§2) Erlotinib was given daily for 14 days at a dose of 50 mg/kg. Erlotinib alone, IgG1-b12-vcMMAE and IgG1-b12 were used as controls.

LU1868 = assay: Erlotinib-resistant NSCLC PDX model LU1868; type: in vivo, BALB/c nude mice
Method: as §1
Erlotinib was given daily for 14 days at a dose of 50 mg/kg. Treatments with erlotinib alone, IgG1-b12-vcMMAE or IgG1-b12 were included as controls (FIG. 27).

LU2511 tumors = assay: Erlotinib-resistant NSCLC PDX model LU2511; type: in vivo, BALB/c nude mice
Method: Tumor fragments from donor mice bearing patient-derived NSCLC xenografts (LU2511) were used for inoculation into BALB/c nude mice. Each mouse was inoculated subcutaneously at the right flank with one tumor fragment (2-3 mm in diameter) and tumors were allowed to grow until the tumor volume was about 200 mm^3. […] The antibodies and ADCs were dosed intravenously (i.v.) at 4 mg/kg on the day of randomization (day 0) and on day 7. Erlotinib was dosed orally (per os) at 50 mg/kg daily for 2 weeks. Tumor volumes (mm^3) were monitored twice weekly and were calculated from caliper (PLEXX) measurements as: 0.5×(length)×(width)^2.

LXFA 526 = assay: Erlotinib-resistant NSCLC PDX model LXFA 526; type: in vivo, NMRI nu/nu mice
Method: (§3) Inoculation of tumor fragments into 4-6 weeks old male NMRI nu/nu mice and randomization was performed as described above.
Erlotinib was given daily for 14 days at a dose of 50 mg/kg. Erlotinib alone, IgG1-b12-vcMMAE and IgG1-b12 were used as control.

LXFA 677 = assay: NSCLC PDX model LXFA 677; type: in vivo, NMRI nu/nu mice
Method: as §3, §2

LXFA 677_3 = assay: NSCLC PDX model LXFA 677_3 (acquired resistance to erlotinib); type: in vivo, NMRI nu/nu mice
Method: as §3, §2

ES0195 tumors = assay: Esophageal cancer PDX model ES0195; type: in vivo, BALB/c nude mice
Method: Tumor fragments from donor mice bearing patient-derived esophageal xenografts (ES0195) were used for inoculation into BALB/c nude mice. Each mouse was inoculated subcutaneously at the right flank with one tumor fragment (2-3 mm in diameter) and tumors were allowed to grow until the tumor volume was about 150 mm^3. […] The antibodies and ADCs were dosed intravenously (i.v.) at 4 mg/kg at day of randomization (day 0) and day 7. Paclitaxel was dosed intra-peritoneally (i.p.) at 20 mg/kg at day 0, 7, and 14. Tumor volumes (mm^3) were monitored twice weekly and were calculated from caliper (PLEXX) measurements as: 0.52×(length)×(width)^2.

CV1664 = assay: Cervical cancer PDX model CV1664; type: in vivo, BALB/c nude mice
Method: Inoculation of tumor fragments into BALB/c nude mice and randomization was performed as described in Example 23.

A431 cells = assay: Cytotoxicity assay (CellTiter-Glo) in A431 cells; type: cell-based; conditions: A431 (n = 3), 5 days incubation
Method: (§4) LCLC-103H cells (human large cell lung cancer) and A431 cells (DMSZ, Braunschweig, Germany) were cultured in RPMI 1640 with L-Glutamine (Cambrex; cat.no. BE12-115F) supplemented with 10% (vol/vol) heat inactivated Cosmic Calf Serum (Perbio; cat.no. SH30087.03), 2 mM L-glutamine (Cambrex; cat.no. US17-905C), 50 IU/mL penicillin, and 50 µg/mL streptomycin (Cambrex; cat.no. DE17-603E). MDA-MB231 cells were cultured in DMEM with high glucose and HEPES (Lonza #BE12-709F), Donor Bovine Serum with Iron (Life Technologies #10371-029), 2 mM L-glutamine (Lonza #BE17 -605E), 1 mM Sodium Pyruvate (Lonza #BE13-115E), and MEM Non-Essential Amino Acids Solution (Life Technologies #11140). The cell lines were maintained at 37° C. in a 5% (vol/vol) CO2 humidified incubator. LCLC-103H, A431 and MDA-MB231 cells were cultured to near confluency, after which cells were trypsinized, resuspended in culture medium and passed through a cell strainer (BD Falcon, cat.no. 352340) to obtain a single cell suspension. […]
(§5) Subsequently, 180 μL per well was transferred to white 96-well Optiplate™ plates (PerkinElmer, Waltham, Mass.; cat.no. 6005299), which were incubated for 30 min at room temperature. Finally, luminescence was measured on an EnVision multiplate reader (Envision, Perkin Elmer).

MDA-MB231 cells = assay: Cytotoxicity assay (CellTiter-Glo) in MDA-MB231 cells; type: cell-based; conditions: MDA-MB231 (n = 2), 5 days incubation
Method: as §4, §5

PAXF1657 tumors = assay: PAXF1657 pancreas cancer PDX model; type: in vivo, NMRI nu/nu mice
Method: Human pancreas tumor tissue was subcutaneously implanted in the left flank of 5-7 weeks old female NMRI nu/nu mice. […] At day of randomization (day 0), the 3 ADCs were dosed intravenously (i.v.) at either 4 mg/kg or 2 mg/kg, and the control group received a single dose of IgG1-b12 (4 mg/kg). Tumor volumes (mm^3) were monitored twice weekly and were calculated from caliper (PLEXX) measurements as: 0.52×(length)×(width)^2.

A431 tumors = assay: A431 xenograft model (high Gas6); type: in vivo; conditions: 3 mg/kg i.p., SCID mice
Method: (§6) Tumor induction was performed by subcutaneous injection of 5×10^6 A431 or LCLC-103H tumor cells (both obtained from Leibniz-Institut—Deutsche Sammlung von Mikroorganismen and Zellkulturen GmbH (DSMZ)) in 200 μL PBS in the right flank of female SCID mice. Treatment was started 14-21 days after tumor cell inoculation, when the average tumor size was >100-200 mm^3 and distinct tumor growth was observed. Mice received a single injection or a total of 4 biweekly intraperitoneal injections with IgG1-AXL-vcMMAE ADCs or control antibody (unconjugated IgG1-b12), as indicated. Tumor volume was determined at least two times per week. Tumor volumes (mm^3) were calculated from caliper (PLEXX) measurements as: 0.52×(length)×(width)^2.

[1] = test system: LCLC-103H xenograft tumors; assay: Therapeutic treatment of SC LCLC-103H tumor xenografts (Example 3); type: in vivo, SCID mice
Method: The in vivo efficacy of MMAE-conjugated anti-AXL antibodies was determined in established subcutaneous (SC) LCLC-103H xenograft tumors in SCID mice. 5×10^6 LCLC-103H (large cell lung carcinoma) tumor cells (obtained from Leibniz-Institut DSMZ-Deutsche Sammlung von Mikroorganismen and Zellkulturen GmbH (DSMZ)) in 200 μL PBS were injected subcutaneously in the right flank of female SCID mice. Starting 14-21 days after tumor cell inoculation, when the average tumor size was >100-200 mm^3 and distinct tumor growth was observed, a single injection with 1 mg/kg (20 μg/mouse) IgG1-AXL-vcMMAE antibodies or control (unconjugated IgG1-b12) was given intraperitoneally (100 μL/mouse). Tumor volume was determined at least two times per week. Tumor volumes (mm^3) were calculated from caliper (PLEXX) measurements as: 0.52×(length)×(width)^2.

LCLC-103H cells = assay: Cytotoxicity assay (CellTiter-Glo) in LCLC-103H cells; type: cell-based, human; conditions: 5 days incubation
Method: as §4, §5

LCLC-103H tumors = assay: LCLC-103H xenograft model (low Gas6, Example 5); type: in vivo; conditions: 1 mg/kg i.p., SCID mice
Method: as §6

[2] = 2 doses of 4 mg/kg on days 55 and 62

C#Cc1cccc(Nc2ncnc3cc(OCCOC)c(OCCOC)cc23)c1 [erlotinib, reference compound]
effect on tumor growth, LU0858 (LU0858; 50 mg/kg daily for 14 days): no effect on tumor growth
effect on tumor growth, LU1868 (LU1868; 50 mg/kg daily for 14 days): no effect on tumor growth
anti-tumor activity on LU2511 tumors (LU2511 tumors; 50 mg/kg per os daily for 2 weeks): did not induce anti-tumor activity
effect on tumor growth, LXFA 526 (LXFA 526; 50 mg/kg daily for 14 days): no effect on tumor growth
effect on tumor growth, LXFA 677 (LXFA 677; 50 mg/kg daily for 14 days): induced partial tumor regression
effect on tumor growth, LXFA 677_3 (LXFA 677_3; 50 mg/kg daily for 14 days): no effect on tumor growth

CC(=O)O[C@H]1C(=O)[C@@]2(C)[C@H]([C@H](OC(=O)c3ccccc3)[C@]3(O)C[C@H](OC(=O)[C@H](O)[C@@H](NC(=O)c4ccccc4)c4ccccc4)C(C)=C1C3(C)C)[C@]1(OC(C)=O)CO[C@@H]1C[C@@H]2O [paclitaxel, reference compound]
anti-tumor activity on ES0195 tumors (ES0195 tumors; 20 mg/kg i.p. day 0, 7 and 14): tumor growth inhibition
effect on tumor growth, CV1664 (CV1664; 20 mg/kg intraperitoneally day 0 and 7): induced partial tumor regression

IgG1-AXL-107
effect on tumor growth compared to IgG1-b12 control group, CV1664 (CV1664; 4 mg/kg day 0 and 7): only induced minor inhibition of tumor growth

IgG1-AXL-107-vcMMAE: anti-AXL antibody 107 (VH SEQ ID No 1, VL SEQ ID No 2) conjugated to MMAE via vc linker
effect on tumor growth, LU0858 (LU0858; 2 mg/kg day 0 and 7, alone): no effect on tumor growth
effect on tumor growth, LU0858 (LU0858; 4 mg/kg day 0 and 7, alone, compared to IgG1-b12-vcMMAE control): induced tumor growth inhibition
anti-tumor activity on ES0195 tumors (ES0195 tumors; 4 mg/kg i.v. day 0 and day 7): induced tumor regression
effect on tumor growth, LU1868 (LU1868; 2 mg/kg and 4 mg/kg, day 0 and 7, alone): induced tumor growth inhibition
anti-tumor activity on LU2511 tumors (LU2511 tumors; 4 mg/kg i.v. day 0 and day 7): induced tumor growth inhibition
EC50 Mean (A431 cells): 0.154 µg/mL
EC50 Mean (MDA-MB231 cells): 0.037 µg/mL
effect on tumor growth, LXFA 526 (LXFA 526; 2 mg/kg day 0 and 7): induced tumor growth inhibition
effect on tumor growth, LXFA 526 (LXFA 526; 4 mg/kg day 0 and 7): complete tumor regression in all mice at least until day 76
effect on tumor growth, LXFA 677 (LXFA 677; 2 mg/kg day 0 and 7): induced tumor growth inhibition
effect on tumor growth, LXFA 677 (LXFA 677; 4 mg/kg day 0 and 7): induced partial tumor regression
growth of PAXF1657 tumors compared to the control group (PAXF1657 tumors; 2 mg/kg i.v., day 0): significantly reduced the growth
anti-tumor activity on PAXF1657 tumors (PAXF1657 tumors; 4 mg/kg i.v., day 0): induced tumor regression
average tumor size versus isotype control IgG1-b12 (PAXF1657 tumors; day 14, 2 mg/kg or 4 mg/kg, p<0.001 Tukey's multiple comparison test): significantly smaller
anti-tumor activity on A431 tumors (A431 tumors): induced growth inhibition
complete tumor reduction ([1]; 1 mg/kg single i.p.): in some mice within these groups to complete tumor reduction
tumor volume versus control IgG1-b12 ([1]; day 30, One Way ANOVA (Dunnett's), 1 mg/kg single i.p.): highly significant difference
anti-tumor activity in established SC LCLC-103H tumors ([1]; single i.p. injection 1 mg/kg, SCID mice): induced tumor regression
retreatment of three mice with tumor regrowth after paclitaxel, CV1664 (CV1664; [2]): Two of the three mice showed complete tumor regression
retreatment of two mice with tumor regrowth after initial 4 mg/kg ADC, CV1664 (CV1664; [2]): partial tumor regression in both mice
second retreatment of the one mouse with regrowth after paclitaxel and ADC, CV1664 (CV1664; 2 doses of 4 mg/kg on days 98 and 105): partial tumor regression
second retreatment of the same two mice, CV1664 (CV1664; 2 doses of 4 mg/kg on days 105 and 112): partial tumor regression in both animals
effect on tumor growth, CV1664 (CV1664; both dose levels (2 or 4 mg/kg), day 0 and 7, lasted at least until day 49): induced strong tumor regression
EC50 (LCLC-103H cells): 0.022 µg/mL
effect on tumor growth, LXFA 677_3 (LXFA 677_3; both dose levels (2 and 4 mg/kg), day 0 and 7, lasted at least until day 41): induced complete tumor regression
anti-tumor activity on LCLC-103H tumors (LCLC-103H tumors): induced regression

Reference: US20190233522A1, “NEW DOSAGE REGIMENS FOR ANTIBODY DRUG CONJUGATES BASED ON ANTI-AXL ANTIBODIES” (GENMAB A/S, priority 2016, published 2019)
